# Experimental data reported in patent publication US8609173B2, “Compositions comprising sweetness enhancers and methods of making them” (Senomyx Inc., priority 2008, dated 2013).
# Experiments:
# External panelists = assay: Line scale (15-point sucrose equivalence) sensory test, Example 5, sucrose or LSB, pH 7.1; format: in vivo, Human
# Protocol: (§1) Several types of sensory tests were used to determine the efficacy of 3-(4-amino-2,2-dioxide-1H-benzo[c][1,2,6]thiadiazin-5-yloxy)-2′,2′-dimethyl-N-propylpropanamide 3-(4-amino-2,2-dioxide-1H-benzo[c][1,2,6]thiadiazin-5-yloxy)-2′,2′-dimethyl-N-propylpropanamide in enhancing the sweetness of sucrose. Two types of tests were conducted: • 1) Sensory scaling tests were performed using a 15-point percent sucrose equivalence scale for sweetness in order to evaluate sweetness enhancement 3-(4-amino-2,2-dioxide-1H-benzo[c][1,2,6]thiadiazin-5-yloxy)-2′,2′-dimethyl-N-propylpropanamide 3-(4-amino-2,2-dioxide-1H-benzo[c][1,2,6]thiadiazin-5-yloxy)-2′,2′-dimethyl-N-propylpropanamide in sucrose or in fructose. • 2) Paired comparison tests (2-alternative forced choice difference tests) were used to determine sweetness equivalence for solutions of sucrose vs. 3-(4-amino-2,2-dioxide-1H-benzo[c][1,2,6]thiadiazin-5-yloxy)-2′,2′-dimethyl-N-propylpropanamide 3-(4-amino-2,2-dioxide-1H-benzo[c][1,2,6]thiadiazin-5-yloxy)-2′,2′-dimethyl-N-propylpropanamide or buffer vs. 3-(4-amino-2,2-dioxide-1H-benzo[c][1,2,6]thiadiazin-5-yloxy)-2′,2′-dimethyl-N-propylpropanamide 3-(4-amino-2,2-dioxide-1H-benzo[c][1,2,6]thiadiazin-5-yloxy)-2′,2′-dimethyl-N-propylpropanamide. Stimuli:
# Tests were performed with sucrose or fructose. The sweetener was evaluated with and/or without 3-(4-amino-2,2-dioxide-1H-benzo[c][1,2,6]thiadiazin-5-yloxy)-2′,2′-dimethyl-N-propylpropanamide 3-(4-amino-2,2-dioxide-1H-benzo[c][1,2,6]thiadiazin-5-yloxy)-2′,2′-dimethyl-N-propylpropanamide at the appropriate concentration(s).
# 3-(4-amino-2,2-dioxide-1H-benzo[c][1,2,6]thiadiazin-5-yloxy)-2′,2′-dimethyl-N-propylpropanamide was prepared as a concentrated stock solution in ethanol to ensure dissolution of the 3-(4-amino-2,2-dioxide-1H-benzo[c][1,2,6]thiadiazin-5-yloxy)-2′,2′-dimethyl-N-propylpropanamide. Therefore, all taste solutions contained ethanol in the final solution. Samples without 3-(4-amino-2,2-dioxide-1H-benzo[c][1,2,6]thiadiazin-5-yloxy)-2′,2′-dimethyl-N-propylpropanamide also contained an equivalent concentration of ethanol. For samples involving 3-(4-amino-2,2-dioxide-1H-benzo[c][1,2,6]thiadiazin-5-yloxy)-2′,2′-dimethyl-N-propylpropanamide at 5-10 ppm (up to 28 μM), the final concentration of ethanol was 0.2%; 30-40 μM, 0.4% ethanol; 50 μM, 0.5% ethanol; and 100 μM, 1% ethanol.
# Taste samples were also prepared in low sodium phosphate buffer (pH 7.1; “LSB”) lacking sucrose to evaluate the taste of 3-(4-amino-2,2-dioxide-1H-benzo[c][1,2,6]thiadiazin-5-yloxy)-2′,2′-dimethyl-N-propylpropanamide alone. Low sodium phosphate buffer consists of 0.3 mM KCl, 0.5 mM Na2HPO4, and 0.175 mM KH2PO4.
# In scaling test situations, the samples were rated on a 15-point scale for sweetness, ranging from 0=0% sucrose to 15=15% sucrose. To evaluate attributes other than sweetness, references are used for training and are prepared according to the table below. Note that each reference was given a score of 5 on the 15-point scale.
# External panelists were used for the tests. The exact number of panelists is reported with test results. Subjects were instructed not to eat or drink anything (except water) for at least 1 hour prior to the test.
# Panelists rinsed their mouths with water prior to starting any test. Samples were presented to panelists in a randomized, counterbalanced order. Panelists rinsed with water and had up to a 1 minute delay to clear the mouth of any tastes after each evaluation. Two replicates of each test were performed, unless otherwise noted.
# In scaling tests, panelists rate samples monadically for the attributes listed above (see Stimuli). In paired comparison tests, panelists taste pairs of solutions and indicate which sample is perceived to be sweeter.
# Attributes of interest are reported for each scaling taste test.
# Panelists rinsed their mouths with water prior to starting any test. Samples were presented to panelists in a randomized, counterbalanced order. […]
# Panelists = assay: Paired comparison taste test, Example 7, sucrose or fructose solutions; format: in vivo, Human
# Protocol: as §1
# Panelists evaluated two solutions in a paired comparison taste test procedure. They were instructed to select the sweeter of the two samples. They were also asked to comment on how difficult it was to tell the difference in sweetness between both samples and if any off tastes were perceived.
# Panelists evaluated two solutions in a paired comparison taste test procedure and were instructed to select the sweeter of the two samples.
compound,measurement,setting,value
"CCCNC(=O)C(C)(C)COc1cccc2c1C(N)=NS(=O)(=O)N2 [3-(4-amino-2,2-dioxide-1H-benzo[c][1,2,6]thiadiazin-5-yloxy)-2′,2′-dimethyl-N-propylpropanamide]",off tastes,External panelists; 25.0 μM (8.9 ppm) compound on its own,no significant off tastes
same,Average Sweetness,"External panelists; 25 μM (8.9 ppm) compound on its own, pH 7, n = 30",0.6
same,Sweetness vs sucrose solutions (conclusion),"External panelists; 25.0 μM (8.9 ppm) compound on its own, p>0.10",not significantly different in sweetness than 0% sucrose
same,Average Bitterness,"External panelists; 25 μM compound on its own, n = 30",0.2
same,Average Sweetness,"External panelists; 50 μM (17.7 ppm) compound on its own in LSB, pH 7.1, n = 14",1.3
same,bitter off tastes,"External panelists; 50 μM compound in LSB, pH 7.1",no significant bitter off tastes
same,off tastes,External panelists; 50 μM compound on its own in LSB,no significant off tastes
same,Average Bitterness,"External panelists; 1% Sucrose + 5 ppm (14.11 μM) compound, n = 30",0.4
same,Average Sweetness,"External panelists; 1% Sucrose + 5 ppm (14.11 μM) compound, pH 7.1, n = 30",2.5
same,Sweetness vs sucrose solutions (conclusion),"External panelists; 1% sucrose + 5 ppm compound, p>0.10",not significantly different in sweetness than 2% sucrose
same,off tastes,"External panelists; 1-10 ppm compound in 6% sucrose, LSB, pH 7.1",no significant off tastes
same,Average Sweetness,"External panelists; 2% Sucrose + 25 μM (8.9 ppm) compound, pH 7.1, n = 28",5.6
same,Average Bitterness,"External panelists; 2% Sucrose + 25 μM compound, n = 28",0.3
same,Average Bitterness,"External panelists; 2% Sucrose + 5 ppm (14.11 μM) compound, n = 30",0.2
same,Average Sweetness,"External panelists; 2% Sucrose + 5 ppm (14.11 μM) compound, pH 7.1, n = 30",4.6
same,Sweetness vs sucrose solutions (conclusion),External panelists; 2% sucrose + 5 ppm compound,not significantly different in sweetness than 4% sucrose
same,Sweetness vs sucrose solutions (conclusion),"External panelists; 2% sucrose + 8.9 ppm compound, p>0.10",not significantly different in sweetness than 6% sucrose
same,Average Sweetness,"External panelists; 4% Sucrose + 25 μM (8.9 ppm) compound, pH 7.1, n = 28",8.3
same,Average Bitterness,"External panelists; 4% Sucrose + 25 μM compound, n = 28",0.3
same,Average Bitterness,"External panelists; 4% Sucrose + 5 ppm (14.11 μM) compound, n = 30",0.2
same,Average Sweetness,"External panelists; 4% Sucrose + 5 ppm (14.11 μM) compound, pH 7.1, n = 30",8.1
same,Sweetness vs sucrose solutions (conclusion),"External panelists; 4% sucrose + 5 ppm compound, p>0.10",not significantly different in sweetness than 8% sucrose
same,Sweetness vs sucrose solutions (conclusion),"External panelists; 4% sucrose + 8.9 ppm compound, p>0.10",not significantly different in sweetness than 8% sucrose
same,off tastes,"External panelists; 5 ppm compound in 1-6% sucrose, LSB, pH 7.1",no significant off tastes
same,Average Sweetness,"External panelists; 6% Sucrose + 25 μM (8.9 ppm) compound, pH 7.1, n = 24",10.6
same,Sweetness vs sucrose solutions (conclusion),"External panelists; 6% Sucrose + 25 μM compound, p>0.10",not significantly different in sweetness than 10% or 12% sucrose
same,Average Bitterness,"External panelists; 6% Sucrose + 25 μM compound, pH 7.1, n = 24",0.1
same,Average Sweetness,"External panelists; 6% Sucrose + 50 μM (17.7 ppm) compound, pH 7.1, n = 15",9.9
same,Sweetness vs sucrose solutions (conclusion),"External panelists; 6% Sucrose + 50 μM compound, p>0.10",not significantly different in sweetness compared to 10% or 12% Sucrose
same,Average Bitterness,"External panelists; 6% Sucrose + 50 μM compound, pH 7.1, n = 15",0.2
same,Average Bitterness,"External panelists; 6% Sucrose + 1 ppm (2.82 μM) compound, n = 30",0.7
same,Average Sweetness,"External panelists; 6% Sucrose + 1 ppm (2.82 μM) compound, pH 7.1, n = 30",7.5
same,Average Bitterness,"External panelists; 6% Sucrose + 2 ppm (5.64 μM) compound, n = 30",0.4
same,Average Sweetness,"External panelists; 6% Sucrose + 2 ppm (5.64 μM) compound, pH 7.1, n = 30",8.0
same,Average Bitterness,"External panelists; 6% Sucrose + 4 ppm (11.29 μM) compound, n = 30",0.4
same,Average Sweetness,"External panelists; 6% Sucrose + 4 ppm (11.29 μM) compound, pH 7.1, n = 30",10.1
same,Average Bitterness,"External panelists; 6% Sucrose + 5 ppm (14.11 μM) compound, n = 30",0.4
same,Average Sweetness,"External panelists; 6% Sucrose + 5 ppm (14.11 μM) compound, pH 7.1, n = 30",10.2
same,Average Bitterness,"External panelists; 6% Sucrose + 7 ppm (19.75 μM) compound, n = 30",0.3
same,Average Sweetness,"External panelists; 6% Sucrose + 7 ppm (19.75 μM) compound, pH 7.1, n = 30",10.3
same,Sweetness vs sucrose solutions (conclusion),"External panelists; 6% Sucrose + 7 ppm compound, p>0.10",not significantly different than 10% or 12% sucrose
same,Average Bitterness,"External panelists; 6% Sucrose + 10 ppm (28.22 μM) compound, n = 30",0.6
same,Average Sweetness,"External panelists; 6% Sucrose + 10 ppm (28.22 μM) compound, pH 7.1, n = 30",10.9
same,Sweetness vs sucrose solutions (conclusion),"External panelists; 6% Sucrose + 10 ppm compound, p>0.10",not significantly different than 10% or 12% sucrose
same,off tastes,External panelists; 6% sucrose + 25 μM compound,no significant off tastes
same,Sweetness vs sucrose solutions (conclusion),"External panelists; 6% sucrose + 4 ppm compound, p>0.10",not significantly different than 10% sucrose
same,off tastes,"External panelists; 8.9 ppm compound in 2-4% sucrose, LSB, pH 7.1",no significant off tastes
same,"Sample selected as more sweet by panelists, Total","Panelists; 28 μM (9.9 ppm) compound chosen, vs 1% Sucrose, n = 32",4
same,Sweetness comparison (conclusion),Panelists; 28 μM compound vs 1% sucrose,1% sucrose was significantly sweeter
same,"Sample selected as sweeter by panelists, Test 1","Panelists; 6% Fructose + 25 μM (8.9 ppm) compound chosen, vs 6% Fructose, N = 25",20
same,"Sample selected as more sweet by panelists, Test 1","Panelists; 6% Fructose + 25 μM (8.9 ppm) compound chosen, vs 7% Fructose, N = 25",12
same,Sweetness comparison (conclusion),"Panelists; 6% fructose + 25 μM compound vs 6% fructose, p<0.05",significantly sweeter than 6% fructose
same,Sweetness comparison (conclusion),Panelists; 6% fructose + 25 μM compound vs 7% fructose,no significant difference in sweetness
